Assay results reported in patent US20200030355A1, “COMBINATION THERAPY FOR TREATING CANCER” (Epizyme, Inc., priority 2014, published 2020).
Structures can show the parent of a compound that is named as a salt. Where two headings read alike, the source gives them in different places.

How the values were obtained:
SKM-1 cells = test: EPZ-5676 300 nM 7-day pre-treatment, then second compound 72 hours, ATPLite, IC50 shift (Example 6); type: cell-based, human
Procedure: (§1) Cells were then equilibrated in incubators for 24 hours before treatment with a second compound. Treated assay plates were incubated with a second compound for 72 hours. After this time, plates were developed for endpoint analysis using ATPLite to measure ATP content, which is used as an indicator of cell viability.
(§2) “N/D” means that IC50 of the second compound could not be determined for both conditions.

MOLM-13 cells = test: as above; type: cell-based, human; settings: 300 nM EPZ-5676 or DMSO 7-day pre-treatment, then 2nd compound 72 hours, Synergy = IC50 of 2nd compound decreased by 2-fold or more vs DMSO control
Procedure: as §1, §2

[1] = SKM-1 cells, 300 nM EPZ-5676 or DMSO 7-day pre-treatment, then 2nd compound 72 hours, ATPLite, Synergy = IC50 of 2nd compound decreased by 2-fold or more vs DMSO control

Molecule	SKM-1 (summary of combination study: EPZ-5676 + 2nd compound) (SKM-1 cells; [1])	SKM-1 (summary of combination study: EPZ-5676 + 2nd compound) (SKM-1 cells)	MOLM-13 (summary of combination study: EPZ-5676 + 2nd compound) (MOLM-13 cells)
C=C[C@@]1(C)CC(=O)[C@]2(O)[C@@]3(C)[C@@H](O)CCC(C)(C)[C@@H]3[C@H](OC(=O)CCN(C)C)[C@H](OC(C)=O)[C@@]2(C)O1.Cl [NKH 477]	Synergy (considered synergistic if the IC50 value of the second compound decreased by 2-fold or more when EPZ-5676 was added as compared to the DMSO control)		
COc1ccc(-c2ccc3c(N4CCOC[C@@H]4C)nc(N4CCOC[C@@H]4C)nc3n2)cc1CO [AZD 8055]	Synergy (considered synergistic if the IC50 value of the second compound decreased by 2-fold or more when EPZ-5676 was added as compared to the DMSO control)		
Arsenic Trioxide		2.0	
CC(C)CC(=O)Nc1[nH]nc2c1CN(C(=O)C1CCN(C)CC1)C2(C)C [PHA-793887]	Synergy (considered synergistic if the IC50 value of the second compound decreased by 2-fold or more when EPZ-5676 was added as compared to the DMSO control)		
C#Cc1cccc(Nc2ncnc3cc(OCCOC)c(OCCOC)cc23)c1 [Erlotinib Hydrochloride]	Synergy (considered synergistic if the IC50 value of the second compound decreased by 2-fold or more when EPZ-5676 was added as compared to the DMSO control)		
CCN(CC)CCNC(=O)c1c(C)[nH]c(/C=C2\C(=O)Nc3ccc(F)cc32)c1C [Sunitinib Malate]	2.0		
O=C(c1cn(Cc2cncn2Cc2ccc(Br)cc2)cc1-c1cccc2ccccc12)N1CCOCC1 [LB42708]	Synergy (considered synergistic if the IC50 value of the second compound decreased by 2-fold or more when EPZ-5676 was added as compared to the DMSO control)		Synergy (considered synergistic if the IC50 value of the second compound decreased by 2-fold or more when EPZ-5676 was added as compared to the DMSO control)
C[C@H]1C[C@@H]2[C@H]([C@@H](O)C[C@@]3(C)[C@H]2CC[C@]3(O)C(=O)CO)[C@@]2(C)C=CC(=O)C=C12 [Methylprednisolone]	Synergy (considered synergistic if the IC50 value of the second compound decreased by 2-fold or more when EPZ-5676 was added as compared to the DMSO control)		
Cc1sc2c(c1C)C(c1ccc(Cl)cc1)=N[C@@H](CC(=O)Nc1ccc(O)cc1)c1nnc(C)n1-2 [OTX015]	Synergy (considered synergistic if the IC50 value of the second compound decreased by 2-fold or more when EPZ-5676 was added as compared to the DMSO control)		Synergy (considered synergistic if the IC50 value of the second compound decreased by 2-fold or more when EPZ-5676 was added as compared to the DMSO control)
CC(C)C[C@H](NC(=O)CNC(=O)c1cc(Cl)ccc1Cl)B(O)O [MLN2238]	Synergy (considered synergistic if the IC50 value of the second compound decreased by 2-fold or more when EPZ-5676 was added as compared to the DMSO control)		
CC1=C(/C=C/C(C)=C/C=C/C(C)=C/C(=O)O)C(C)(C)CCC1 [Tretinoin]	Synergy (considered synergistic if the IC50 value of the second compound decreased by 2-fold or more when EPZ-5676 was added as compared to the DMSO control)		Synergy (considered synergistic if the IC50 value of the second compound decreased by 2-fold or more when EPZ-5676 was added as compared to the DMSO control)
N#Cc1c(C2CCNCC2)cc(-c2c(O)cccc2OCC2CC2)nc1N [IKK-2 Inhibitor VIII]	Synergy (considered synergistic if the IC50 value of the second compound decreased by 2-fold or more when EPZ-5676 was added as compared to the DMSO control)		
CN(C)CC[C@H](CSc1ccccc1)Nc1ccc(S(=O)(=O)NC(=O)c2ccc(N3CCN(Cc4ccccc4-c4ccc(Cl)cc4)CC3)cc2)cc1[N+](=O)[O-] [ABT-737]	Synergy (considered synergistic if the IC50 value of the second compound decreased by 2-fold or more when EPZ-5676 was added as compared to the DMSO control)		
CS(=O)(=O)N1CCN(Cc2cc3nc(-c4cccc5[nH]ncc45)nc(N4CCOCC4)c3s2)CC1 [GDC-0941]	Synergy (considered synergistic if the IC50 value of the second compound decreased by 2-fold or more when EPZ-5676 was added as compared to the DMSO control)		Synergy (considered synergistic if the IC50 value of the second compound decreased by 2-fold or more when EPZ-5676 was added as compared to the DMSO control)
O=C(/C=C/c1ccc(O)c(O)c1)OCCc1ccccc1 [CAPE]	Synergy (considered synergistic if the IC50 value of the second compound decreased by 2-fold or more when EPZ-5676 was added as compared to the DMSO control)		Synergy (considered synergistic if the IC50 value of the second compound decreased by 2-fold or more when EPZ-5676 was added as compared to the DMSO control)
COCc1c(C(C)C)nc(C(C)C)c(/C=C/[C@@H](O)C[C@@H](O)CC(=O)O)c1-c1ccc(F)cc1 [Cerivastatin Sodium]	Synergy (considered synergistic if the IC50 value of the second compound decreased by 2-fold or more when EPZ-5676 was added as compared to the DMSO control)		Synergy (considered synergistic if the IC50 value of the second compound decreased by 2-fold or more when EPZ-5676 was added as compared to the DMSO control)
COc1ccc(-c2ccc3c(N4CCOCC4)nc(N4C[C@@H](C)O[C@@H](C)C4)nc3n2)cc1CO [KU 0063794]	Synergy (considered synergistic if the IC50 value of the second compound decreased by 2-fold or more when EPZ-5676 was added as compared to the DMSO control)		Synergy (considered synergistic if the IC50 value of the second compound decreased by 2-fold or more when EPZ-5676 was added as compared to the DMSO control)
COc1cc2c(NC3CCN(C4CCCCC4)CC3)nc(N3CCCN(C(C)C)CC3)nc2cc1OCCCN1CCCCC1 [UNC 0646]	Synergy (considered synergistic if the IC50 value of the second compound decreased by 2-fold or more when EPZ-5676 was added as compared to the DMSO control)		Synergy (considered synergistic if the IC50 value of the second compound decreased by 2-fold or more when EPZ-5676 was added as compared to the DMSO control)
C=C(c1ccc(C(=O)O)cc1)c1cc2c(cc1C)C(C)(C)CCC2(C)C [Bexarotene]	Synergy (considered synergistic if the IC50 value of the second compound decreased by 2-fold or more when EPZ-5676 was added as compared to the DMSO control)		Synergy (considered synergistic if the IC50 value of the second compound decreased by 2-fold or more when EPZ-5676 was added as compared to the DMSO control)
O=C(Nc1cccc(Nc2ncc(Br)c(NCCc3cnc[nH]3)n2)c1)N1CCCC1 [BX-912]	Synergy (considered synergistic if the IC50 value of the second compound decreased by 2-fold or more when EPZ-5676 was added as compared to the DMSO control)		
COc1ccc(CCc2nc3cc(-c4c(C)noc4C)ccc3n2C[C@H](C)N2CCOCC2)cc1Cl [SGC-CBP30]	Synergy (considered synergistic if the IC50 value of the second compound decreased by 2-fold or more when EPZ-5676 was added as compared to the DMSO control)		
Cc1sc2c(c1C)C(c1ccc(Cl)cc1)=N[C@@H](CC(N)=O)c1nnc(C)n1-2 [CPI-203]	Synergy (considered synergistic if the IC50 value of the second compound decreased by 2-fold or more when EPZ-5676 was added as compared to the DMSO control)		Synergy (considered synergistic if the IC50 value of the second compound decreased by 2-fold or more when EPZ-5676 was added as compared to the DMSO control)
CN(C)C(=O)c1cc2cnc(Nc3ccc(N4CCNCC4)cn3)nc2n1C1CCCC1 [LEE011]	Synergy (considered synergistic if the IC50 value of the second compound decreased by 2-fold or more when EPZ-5676 was added as compared to the DMSO control)		Synergy (considered synergistic if the IC50 value of the second compound decreased by 2-fold or more when EPZ-5676 was added as compared to the DMSO control)
COc1ccc(Cc2nccc3cc(OC)c(OC)cc23)cc1OC [Papaverine Hydrochloride]	Synergy (considered synergistic if the IC50 value of the second compound decreased by 2-fold or more when EPZ-5676 was added as compared to the DMSO control)		
